target: PD-1/PD-L1 (Homo sapiens (Human), UniProt Q9NZQ7); experiment: PD-1/PD-L1 biochemical protein-protein interaction assay (ALPHA); conditions: 0.3 nM His tagged PD-L1, 2.5 nM biotinylated Fc-PD-1, 60 minutes at 25° C., read-out: IC50 PD-L1-PD1
Procedure: Binding of the protein pairs is measured using a bead based Amplified Luminescent Proximity Homogeneous Assay (ALPHA) platform. Binding of each protein pair results in proximity of the donor and acceptor beads which leads to an increase in ALPHA signal. […] Assays are performed in 25 mM Hepes (pH 7.4), 150 mM NaCl, 3.4 mM EDTA, 0.005% Tween 20, and 0.01% BSA. […] After an assay reaction time of 60 minutes at 25° C., binding was measured with addition of 20 μg/mL ALPHA assay acceptor beads (anti-His coated) and 20 µg/mL ALPHA assay donor beads (streptavidin coated). IC50 values were calculated from the fit of the dose-response curves to a four-parameter equation.

Chain of PD-1/PD-L1 (Q9NZQ7 19-238): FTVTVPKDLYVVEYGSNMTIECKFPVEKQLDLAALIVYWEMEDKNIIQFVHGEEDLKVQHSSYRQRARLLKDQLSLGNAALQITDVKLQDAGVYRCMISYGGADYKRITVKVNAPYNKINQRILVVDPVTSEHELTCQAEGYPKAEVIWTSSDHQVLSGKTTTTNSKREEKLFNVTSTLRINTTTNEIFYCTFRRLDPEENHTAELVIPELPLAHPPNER

IC50 [nM] | SMILES
0.43 | COc1nc(-c2cccc(-c3cccc(-c4cnc(CNC56CC(C#N)(C5)C6)c(OC)n4)c3Cl)c2Cl)cnc1CNC[C@@H]1CCC(=O)N1 [compound 7]
0.59 | COc1nc(-c2cccc(-c3cccc(-c4cnc(CNC56CC(OC)(C5)C6)c(OC)n4)c3Cl)c2Cl)cnc1CNC[C@@H]1CCC(=O)N1 [compound 8]
0.27 | COc1nc(-c2cccc(-c3cccc(-c4cnc(CN5CC(C#N)C5)c(OC)n4)c3Cl)c2Cl)cnc1CNC[C@@H]1CCC(=O)N1 [compound 10]
0.172 | COc1nc(-c2cccc(-c3cccc(-c4cnc(CN[C@@H]5COC[C@H]5O)c(OC)n4)c3Cl)c2Cl)cnc1CNC[C@@H]1CCC(=O)N1 [compound 11]
1.49 | COc1nc(-c2cccc(-c3cccc(-c4cnc(CNC56CC(C5)C6)c(OC)n4)c3Cl)c2Cl)cnc1CNC[C@@H]1CCC(=O)N1 [compound 12]
7.51 | COc1nc(-c2cccc(-c3cccc(-c4cnc(CNC56CC(C(F)(F)F)(C5)C6)c(OC)n4)c3Cl)c2Cl)cnc1CNC[C@@H]1CCC(=O)N1 [compound 15]
0.173 | COc1nc(-c2cccc(-c3cccc(-c4cnc(CN5CC(C)(O)C5)c(OC)n4)c3Cl)c2Cl)cnc1CNC[C@@H]1CCC(=O)N1 [compound 16]
0.163 | COc1nc(-c2cccc(-c3cccc(-c4cnc(CNC[C@H]5CCCN5C(C)=O)c(OC)n4)c3Cl)c2Cl)cnc1CNC[C@@H]1CCC(=O)N1 [compound 17]
0.266 | COc1nc(-c2cccc(-c3cccc(-c4cnc(CNC[C@@H]5CCCN5C(C)=O)c(OC)n4)c3Cl)c2Cl)cnc1CNC[C@@H]1CCC(=O)N1 [compound 18]
0.221 | COc1nc(-c2cccc(-c3cccc(-c4cnc(CN5CCC[C@@H]5CO)c(OC)n4)c3Cl)c2Cl)cnc1CNC[C@@H]1CCC(=O)N1 [compound 23]
0.179 | COc1nc(-c2cccc(-c3cccc(-c4cnc(CN5CCC[C@H]5CO)c(OC)n4)c3Cl)c2Cl)cnc1CNC[C@@H]1CCC(=O)N1 [compound 24]
0.08 | COc1nc(-c2cccc(-c3cccc(-c4cnc(CNC[C@@H]5CCC(=O)N5)c(OC)n4)c3Cl)c2Cl)cnc1CNCCOC(N)=O [compound 25]
0.06 | COc1nc(-c2cccc(-c3cccc(-c4cnc(CNC[C@@H]5CCC(=O)N5)c(OC)n4)c3Cl)c2Cl)cnc1CNCc1cnn(CCO)c1 [compound 26]
0.09 | COc1nc(-c2cccc(-c3cccc(-c4cnc(CNC[C@@H]5CCC(=O)N5)c(OC)n4)c3Cl)c2Cl)cnc1CNCc1ccn(C)n1 [compound 27]
0.436 | COc1nc(-c2cccc(-c3cccc(-c4cnc(CNC[C@@H]5CCC(=O)N5)c(OC)n4)c3Cl)c2Cl)cnc1CNCc1nc[nH]n1 [compound 28]
0.187 | CCn1cc(CNCc2ncc(-c3cccc(-c4cccc(-c5cnc(CNC[C@@H]6CCC(=O)N6)c(OC)n5)c4Cl)c3Cl)nc2OC)nn1 [compound 32]
0.138 | COc1nc(-c2cccc(-c3cccc(-c4cnc(CNC[C@@H]5CCC(=O)N5)c(OC)n4)c3Cl)c2Cl)cnc1CNCCc1cnn[nH]1 [compound 33]
0.231 | COc1nc(-c2cccc(-c3cccc(-c4cnc(CNC[C@@H]5CCC(=O)N5)c(OC)n4)c3Cl)c2Cl)cnc1CNCc1ccnn1C [compound 34]
0.191 | COc1nc(-c2cccc(-c3cccc(-c4cnc(CNC[C@@H]5CCC(=O)N5)c(OC)n4)c3Cl)c2Cl)cnc1CNCc1c[nH]nn1 [compound 35]
1.7 | COc1nc(-c2cccc(-c3cccc(-c4cnc(CNC[C@@H]5CCC(=O)N5)c(OC)n4)c3Cl)c2Cl)cnc1CNCCNc1ccc([N+](=O)[O-])cc1 [compound 37]
0.66 | COc1nc(-c2cccc(-c3cccc(-c4cnc(CNC(CO)c5nn[nH]n5)c(OC)n4)c3Cl)c2Cl)cnc1CNC[C@@H]1CCC(=O)N1 (stereo partly drawn) [compound 38]
0.39 | COc1nc(-c2cccc(-c3cccc(-c4cnc(CN[C@H]5CCNC5=O)c(OC)n4)c3Cl)c2Cl)cnc1CNC[C@@H]1CCC(=O)N1 [compound 39]
0.083 | COc1nc(-c2cccc(-c3cccc(-c4cnc(CN5CCNC(=O)C5)c(OC)n4)c3Cl)c2Cl)cnc1CNC[C@@H]1CCC(=O)N1 [compound 41]
3.42 | COc1nc(-c2cccc(-c3cccc(-c4cnc(CNC[C@@H]5CCC(=O)N5)c(OC)n4)c3Cl)c2Cl)cnc1CNCCS(=O)(=O)O [compound 42]

More lines, now with the values behind:

SMILES | IC50 [nM]
COc1nc(-c2cccc(-c3cccc(-c4cnc(CN5CC6(CCC(=O)N6)C5)c(OC)n4)c3Cl)c2F)cnc1CN1CC2(CCC(=O)N2)C1 [compound 1] | 0.08
COc1nc(-c2cccc(-c3cccc(-c4cnc(CN5CC(O)C5)c(OC)n4)c3Cl)c2F)cnc1CN1CC(O)C1 [compound 2] | 0.135
COc1nc(-c2cccc(-c3cccc(-c4cnc(CN5CC(OC)C5)c(OC)n4)c3Cl)c2F)cnc1CN1CC(OC)C1 [compound 3] | 0.318
COc1nc(-c2cccc(-c3cccc(-c4cnc(CN5CC6(C5)CN(C(C)=O)C6)c(OC)n4)c3Cl)c2F)cnc1CN1CC2(C1)CN(C(C)=O)C2 [compound 4] | 0.086
COc1nc(-c2cccc(-c3cccc(-c4cnc(CNCCO)c(OC)n4)c3Cl)c2F)cnc1CNCCO [compound 5] | 0.213
COc1nc(-c2cccc(-c3cccc(-c4cnc(CNC[C@@H]5CCC(=O)N5)c(OC)n4)c3Cl)c2F)cnc1CNC[C@@H]1CCC(=O)N1 [compound 6] | 0.099
COc1nc(-c2cccc(-c3cccc(-c4cnc(CN5CC(C)(C#N)C5)c(OC)n4)c3Cl)c2Cl)cnc1CNC[C@@H]1CCC(=O)N1 [compound 9] | 0.49
COc1nc(-c2cccc(-c3cccc(-c4cnc(CN5CC(C(N)=O)C5)c(OC)n4)c3Cl)c2Cl)cnc1CNC[C@@H]1CCC(=O)N1 [compound 13] | 0.482
COc1nc(-c2cccc(-c3cccc(-c4cnc(CN5CC(N6CCCC6=O)C5)c(OC)n4)c3Cl)c2Cl)cnc1CNC[C@@H]1CCC(=O)N1 [compound 14] | 0.224
CNC(=O)[C@@H]1CCCN1Cc1ncc(-c2cccc(-c3cccc(-c4cnc(CNC[C@@H]5CCC(=O)N5)c(OC)n4)c3Cl)c2Cl)nc1OC [compound 19] | 0.199
CNC(=O)[C@H]1CCCN1Cc1ncc(-c2cccc(-c3cccc(-c4cnc(CNC[C@@H]5CCC(=O)N5)c(OC)n4)c3Cl)c2Cl)nc1OC [compound 20] | 0.546
COC[C@H]1CCCN1Cc1ncc(-c2cccc(-c3cccc(-c4cnc(CNC[C@@H]5CCC(=O)N5)c(OC)n4)c3Cl)c2Cl)nc1OC [compound 21] | 0.525
COC[C@@H]1CCCN1Cc1ncc(-c2cccc(-c3cccc(-c4cnc(CNC[C@@H]5CCC(=O)N5)c(OC)n4)c3Cl)c2Cl)nc1OC [compound 22] | 0.506
COc1nc(-c2cccc(-c3cccc(-c4cnc(CNCc5nc(C)n[nH]5)c(OC)n4)c3Cl)c2Cl)cnc1CNCc1nc(C)n[nH]1 [compound 29] | 1.09
COc1nc(-c2cccc(-c3cccc(-c4cnc(CNCc5ccn(C)n5)c(OC)n4)c3Cl)c2Cl)cnc1CNCc1ccn(C)n1 [compound 30] | 0.475
CCn1cc(CNCc2ncc(-c3cccc(-c4cccc(-c5cnc(CNCc6cnn(CC)c6)c(OC)n5)c4Cl)c3Cl)nc2OC)cn1 [compound 31] | 0.334
COc1nc(-c2cccc(-c3cccc(-c4cnc(CN5C[C@@H](N)CCC5=O)c(OC)n4)c3Cl)c2Cl)cnc1CNC[C@@H]1CCC(=O)N1 [compound 36] | 1.29
COc1nc(-c2cccc(-c3cccc(-c4cnc(CN5C[C@@H](F)C[C@H]5CO)c(OC)n4)c3Cl)c2Cl)cnc1CNC[C@@H]1CCC(=O)N1 [compound 40] | 0.238

— patent US10710986B2, “PD-1/PD-L1 inhibitors” (Gilead Sciences, Inc., priority 2018, dated 2020)
